Tests used:
[1] = conversion of creatine to creatinine in solutions of different pH; assay type: physicochemical
Excerpt: FIG. 1 is a graph showing rate of creatinine formation from creatine as a function of pH;
FIG. 2 is a graph showing rate of creatine loss as a function of time upon dissolution in different pH buffers; and
FIG. 3 is a chart showing time in minutes for conversion of 1 g creatine to creatinine in 2 liter at given pH.
The rate of creatinine formation from creatine as a function of pH is shown in FIG. 1 in accordance with research conducted by the inventor. In FIG. 2, the rate of creatine loss as a function of time upon dissolution in different pH buffers is shown.

[2] = acidic solutions having a pH range of from 3-6; cited from earlier work
human body = details: 5 grams of creatine, 4-6 times a day, for two or more days, oral; cited from earlier work

## CN(CC(=O)O)C(=N)N [creatine]
[1]; different pH buffers, as a function of time (FIG. 2)
  creatine remaining following dissolution in a pH buffer: the higher the pH, the higher the creatine remaining
[1]; various pH solutions, 1 g creatine in 2 liter (FIG. 3)
  rate of conversion of one gram of creatine to creatinine: substantially slowed by increasing the pH of the solution
[2]
  rate of conversion of creatine to creatinine: almost instantaneous
Human body
  total creatine concentration: significant increase

Reference: patent US6399661B1, “Oral creatine supplement and method for making same” (priority 2000, dated 2002)
